Holding throughout (type): biochemical
Test [1] deals with T1, fructose bisphosphate aldolase (ALD) (Thermotoga maritima, UniProt Q9WYB0).
T1 construct: gene TM_0273; heat and ammonium sulfate purification
T1 sequence (Q9WYB0 1-315): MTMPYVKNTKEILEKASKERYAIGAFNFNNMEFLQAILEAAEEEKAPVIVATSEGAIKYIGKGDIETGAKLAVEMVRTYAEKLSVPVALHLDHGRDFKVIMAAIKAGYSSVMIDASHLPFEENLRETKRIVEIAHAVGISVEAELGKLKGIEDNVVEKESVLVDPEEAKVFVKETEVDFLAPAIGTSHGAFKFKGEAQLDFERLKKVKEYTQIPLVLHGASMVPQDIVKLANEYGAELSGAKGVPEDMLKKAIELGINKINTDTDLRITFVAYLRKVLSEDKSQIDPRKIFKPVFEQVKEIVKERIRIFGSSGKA
Nature of the test: coupled cascade with TIM, FBP and PGI; G6P by enzymatic glucose reagent.

Test [2] deals with T2, fructose bisphosphatase (FBP) (Thermotoga maritima, UniProt O33832).
T2 construct: gene suhB; recombinant, E. coli, plasmid pCIF (CBM-intein-FBP), tag-free after intein self-cleavage
T2 sequence (O33832 1-256): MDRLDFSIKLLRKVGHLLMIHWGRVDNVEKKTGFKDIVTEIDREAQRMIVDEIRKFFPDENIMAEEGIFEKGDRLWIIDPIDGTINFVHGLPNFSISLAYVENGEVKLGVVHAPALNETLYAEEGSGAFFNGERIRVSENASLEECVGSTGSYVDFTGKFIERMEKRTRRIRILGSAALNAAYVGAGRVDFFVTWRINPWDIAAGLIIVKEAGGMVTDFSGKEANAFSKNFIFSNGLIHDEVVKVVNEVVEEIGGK
Nature of the test: FBP activity assay as described elsewhere; also in four-enzyme cascade.

Test [3] deals with T3, phosphoglucose isomerase (PGI) (Acetivibrio thermocellus, UniProt A3DBX9).
T3 construct: recombinant, E. coli, plasmid pCIP (CBM-intein-PGI), tag-free after intein self-cleavage
T3 sequence (A3DBX9 1-448): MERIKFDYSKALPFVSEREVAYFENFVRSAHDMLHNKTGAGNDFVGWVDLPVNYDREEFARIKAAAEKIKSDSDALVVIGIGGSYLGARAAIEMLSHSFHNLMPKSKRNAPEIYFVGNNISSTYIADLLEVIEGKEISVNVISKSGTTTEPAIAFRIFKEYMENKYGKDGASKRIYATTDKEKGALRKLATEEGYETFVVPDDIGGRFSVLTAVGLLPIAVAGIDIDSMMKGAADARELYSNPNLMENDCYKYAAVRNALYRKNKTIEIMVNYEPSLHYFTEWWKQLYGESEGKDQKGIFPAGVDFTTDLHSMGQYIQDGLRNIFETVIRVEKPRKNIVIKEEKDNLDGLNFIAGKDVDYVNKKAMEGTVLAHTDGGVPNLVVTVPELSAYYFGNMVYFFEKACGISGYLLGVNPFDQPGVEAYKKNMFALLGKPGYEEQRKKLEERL
The experiment in a line: G6P formation by enzymatic glucose kit. The note with it: 100 mM HEPES pH 7.5, 10 mM MgCl2, 0.5 mM MnCl2, 60°C.

`O=C(CO)COP(=O)(O)O` [dihydroxyacetone phosphate]: the “coupled cascade with TIM, FBP and PGI; G6P by enzymatic glucose reagent” value in test [1] (co-substrate G3P) is “G3P and DHAP were substrates and F16P was the product”.

Consider `O=P(O)(O)OC[C@H]1OC(O)(COP(=O)(O)O)[C@@H](O)[C@@H]1O` (stereo partly shown) [fructose 1,6-bisphosphate], for which, in test [2], the “FBP activity assay as described elsewhere; also in four-enzyme cascade” value is “FBP catalyses the irreversible conversion of F16P to fructose 6-phosphate (F6P)”.

Turning to `O=P(O)(O)OC[C@H]1OC(O)(CO)[C@@H](O)[C@@H]1O` (stereo partly shown) [fructose 6-phosphate], in test [3], the “G6P formation by enzymatic glucose kit” value was “PGI reversibly converts fructose-6-phosphate (F6P) and glucose-6-phosphate (G6P)”.

On to `O=C[C@H](O)COP(=O)(O)O` [glyceraldehyde-3-phosphate], for which the “coupled cascade with TIM, FBP and PGI; G6P by enzymatic glucose reagent” value in test [1] (co-substrate DHAP) is “G3P and DHAP were substrates and F16P was the product”.

(Values after publication PMC3621832, “Non-Complexed Four Cascade Enzyme Mixture: Simple Purification and Synergetic Co-stabilization” (PLoS ONE, 2013).)
